Measurements reported in US11497740B2, “Use of Jumonji C demethylase inhibitors for the treatment and prevention of chemotherapy resistance and radioresistance in cancer” (THE BOARD OF REGENTS OF THE UNIVERSITY OF TEXAS SYSTEM, priority 2016, dated 2022).

Key:
[1] = test system: 53BP1 foci; assay: Immunofluorescence DSB repair kinetics, 53BP1 foci; type: cell-based, Human; details: for 53BP1 foci resolution: H1299 and A549, 4 h pretreatment, then IR
Procedure: NSCLCs were seeded onto Lab-Tek II Chamber Slides (Thermo Fisher) and 24 hours later pretreated with JIB-04 or DMSO for 4 h. Then cells were exposed to a total dose of 2 Gy (γH2AX and 53BP1) or 10 Gy (RAD-51 and DNAPKcs p-T2609) radiation. For knockdown and overexpression experiments H1299 cells were transfected using the Amaxa Nucleofector; program X-005. Specifically, 3×10^6 were transfected with siRNA duplexes targeting JMJD2A, JMJD2B, Jarid1A, Jarid1b, scrambled siRNA (250 nM final concentration) or expression vectors pCMVHA-JMJD2A, pCMVHA-JMJD2B, pCMVHA-Jarid1A, pCMVHA-Jarid1B, PC-2 for 72 hours, followed by quantification of expression or irradiation. Then, cells were fixed in 4% formaldehyde/PBS for 15 min, permeabilized with 0.5% Triton X-100 for 15 min on ice, and blocked with 5% bovine serum albumin in PBS for 1 h. The slides were incubated with an antibody against phospho-Histone γH2AX (1:1000, 3 h at room temperature), 53BP1 (1:500, 3 h at room temperature), Rad-51 (1:500, 48 hs 4° C.) or DNAPKcs p-T2609 (1:500, 48 hs 4° C.). Alexa Fluor 488-conjugated goat anti-Rabbit, […] goat anti-mouse or rhodamine red-conjugated goat anti-mouse secondaries antibodies were used (1:1000, 1 h at room temperature). Slides were mounted in a Vectashield mounting medium containing 4′,6-diamidino-2-phenylindole (DAPI). Cells were analyzed on a Zeiss upright fluorescent microscope.

[2] = test system: ABCB1/MDR1; assay: qRT-PCR of ABCB1/MDR1 in treated H1299 T18 cells; type: cell-based, human; details: for expression of MDR1: H1299 T18 cells
Source text: Total RNA was isolated using RNeasy Plus Mini kit (Qiagen) and cDNA was generated using iScript cDNA synthesis kit (BioRad). For epigenetic enzymes, transcripts were detected by SYBR Green chemistry in real time quantitative PCR assays using validated primers. TBP and GAPDH were used as endogenous controls. […] For all non-epigenetic transcripts, TaqMan probes (Life Technologies) were utilized in multiplex with GAPDH internal reference gene. Additionally, a reference sample containing pooled RNA from normal human and tumor tissues (Stratagene) was used. PCR reactions were run using the ABI 7300 Real-time PCR System and analyzed with the included software. The comparative CT method was used to compute relative mRNA expression.

[3] = test system: H1355 T16; assay: MTS cell viability assay, H1355 T16 resistant variant vs H1355 Parental; type: cell-based, human; details: H1355 T16 vs H1355 Parental
Procedure: NSCLC lines were treated with paclitaxel+carboplatin combination, given in a ˜2:3 wt/wt ratio, to mirror the clinical dosage values of ˜225 mg/m2 and ˜330 mg/m2, paclitaxel and carboplatin respectively. Note that considering the molecular weights of the two drugs, this translates to approximately a 1 to 3.4 molar ratio. Drugs were given in cycles, following a drug on/drug off treatment scheme. Each cycle consisted of 4-5 days of drug treatment and drug-free culturing for about 1-2 weeks or more to allow the surviving cells to repopulate the plate. […] Untreated parental cells were simultaneously maintained at all times for comparison. Cell viability was assessed in 96-well plates using standard MTS assays (Promega). Treatment duration in MTS assays was 4 days. Drugs were tested in two- or four-fold serial dilutions, totaling 8 different drug concentrations, with 8 replicates per concentration. Response was validated in multiple replicate plates (n≥3).
Cell viability was assessed by standard MTS assays using Promega's CellTiter reagents. Eight drug concentrations given as two- or four-fold dilutions were tested for each chemotherapeutic agent. In addition, each experiment contained eight replicates per concentration and the entire assay was performed in multiple replicates (n≥3).

[4] = test system: H1299 Parental cells; assay: Microarray gene expression after 24 h treatment, H1299 Parental cells; type: cell-based, human; details: 0.2 μM JIB-04 or 1 μM GSK-J4, fold changes ≥1.5, P ≤0.05
Procedure: Gene expression profiling was performed using Illumina HumanWG-6 V3 BeadArrays (for NSCLC patient tumors) or Illumina HumanHT-12 V4 BeadArrays (for cell lines and xenografts). Cell line and xenograft microarrays included biological replicates (Cell lines: 5 for parental, 3 for most resistant variant, 2 for each intermediate resistance time-point; Xenografts: 3 tumors each for parental and resistant group). Data were pre-processed using the R package mbcb for background correction (Ding et al., 2008), then log-transformed and quantile-normalized with the R package preprocessCore or using in-house MATRIX software (MicroArrayTRansformation In eXcel). Microarray data can be found under GEO accession GSE77209.
Log ratios, unpaired t-test p values and color-coded heat maps were obtained using MATRIX. For comparisons involving progressively resistant cell line series, analyses were performed using R package by fitting linear regression model on gene expression data against the log transformed IC50 values as measures of drug response. We fitted beta-uniform mixture model to a set of p-values using the R package ClassComparison. Genes with p-values below the FDR cutoff of 0.1 were considered statistically significant. For xenograft data, differential gene expression analysis was performed by student's t-test. […]

[5] = test system: cell cycle distribution; assay: Cell cycle analysis (PI staining); type: cell-based, Human; details: H1299 and A549; JIB-04 4 h with or without IR (2 Gy)
Procedure: NSCLCs were seeded in 6 wells plate, 24 h latter cells were pretreated with JIB-04 or DMSO for 4 h and exposed to a total dose of 2 Gy. Then cells were collected and fixed using 75% ethanol at […] for at least 24 hours. The cells were resuspended with PBS and incubated with 20 μl 1 mg/ml RNase A (Sigma) and 25 μg ml/ml propidium iodide (Sigma) for 30 min at room temperature. Experiment was done by triplicate, 20,000 cells were counted and the proportion of cells of different phase was analyzed using the software Flowjo.

Row | SMILES | 53BP1 foci resolution [1] | expression of MDR1 [2] | sensitivity of resistant variant compared to parental cells [3] | gene expression changes (total probes) [4] [probes] | 53BP1 foci formation and resolution ([1]; HCC-95 cells, 35 nM JIB-04 4 h, 2 Gy) | decrease in ABCB1/MDR1 mRNA expression ([2]; high dose JIB-04 (10×-20×IC50), 24-48 h treatment) | decrease in ABCB1/MDR1 mRNA expression ([2]; low dose JIB-04 (1×IC50), 1 wk treatment) | H1355 T16 SR (Selectivity Ratio) ([3]; SR = [IC50 of Parental]/[IC50 of Resistant]) | cell cycle distribution [5]
1 | CCOC(=O)CCNc1cc(N2CCc3ccccc3CC2)nc(-c2ccccn2)n1 [GSK-J4] | not observed | not altered | higher sensitivity | 224 |  |  |  |  | 
2 | Clc1ccc(N/N=C(\c2ccccc2)c2ccccn2)nc1 [JIB-04] | defective | not altered | higher sensitivity | 519 | delayed 53BP1 foci formation and resolution | 10-20% | 10-20% | 2.8 | do not Affect Cell Cycle Distribution
